Results on 7 molecules are retold here after US10994018B2, “Long-acting palmitic acid-conjugated GnRH derivative, and pharmaceutical composition containing same” (priority 2017, dated 2021).

Read-outs that look alike come from different tables or passages of the source. Where a SMILES comes first, the peptide text is derived from it. [ ]: non-standard residue; d: D form. The star is where a group is joined. Palmitoyl = CCCCCCCCCCCCCCCC(=O)*

Data set [1] relates to prostate cancer cell line DU-145. Kind of data set: Cell death assay (Cell Counting Kit-8) on prostate cancer cells. The data set is classed as cell-based. As to the method: GnRH derivatives are clinically applied to the treatment of diseases including breast cancer, prostate cancer, endometriosis, central precocious puberty, and the like. The DU-145 cell line, which is a type of prostate cancer cells, was cultured in T75 flasks containing an adequate amount of RPIM 1640 culture medium (containing 10% FBS, penicillin/streptomycin, and 1% non-essential amino acids) in a sterile incubator having 5% CO2/95% air at 37° C. Cell death assay was performed using the Cell Counting Kit-8 (CCK-8, manufactured by DOJINDO). The […] cells were separated from the T75 flasks by trypsinization treatment and transferred to 96-well plates at a density of 1×10^4 cells/well, followed by incubation for one hour for attachment. Subsequently, the cells were treated with various concentrations of GnRH or GnRH derivatives, and control reagents. Specifically, 1% DMSO was used as a negative control for cell death while 0.1% SDS served as a positive control. After 48 hours of incubation, the existing culture medium was removed, and 100 μL of fresh culture medium and 10 μL of CCK-8 solution were applied to each well. Again, after 48 hours of incubation, the medium solution was replaced by 100 μL of fresh culture medium and 10 μL of CCK-8 solution. The cells were incubated for 4 hours, and then the absorbance was measured at 450 nm to assess cell viability.

Data set [2] can be described thus: Blood concentration and pharmacokinetics after single subcutaneous administration to rats (LC/MSMS). The format is in vivo, female SD rats. The settings on record: rat. Here is the method: Before administration and at 0.5, 1, 2, and 6 hours and on days 1, 3, 7, 10, 14, 21, and 28 after administration, blood samples were taken from the tail vein of the rats and measured for the blood concentrations of Leuprolide and GnRH derivatives, using LC/MSMS. If the concentration reached about 4 ng/mL at a specific time point, no measurements were further made for the next time point. The measurement results are graphically depicted in FIGS. 4 to 6. Based on the results, pharmacokinetic analysis was carried out by calculating the half-life (t1/2), clearance rate (CL), volume of distribution (Vd), time to reach the maximum concentration following drug administration (Tmax), maximum concentration following drug administration (Cmax), and systemic exposure to drug (AUCt). The analysis results are as follows.

The conditions of data set [3]: cited from earlier work.
The conditions of data set [4]: emulsion; same dose (Peng et al., 2010); cited from earlier work.
The mark [5] stands for this setting: female, SD, in vivo, sc, 12.5 mg/kg.
[6] abbreviates: female, SD, in vivo, sc, 12.5 mg/kg, blood concentration, Mean.

For the molecule `CCCCCCCCCCCCOS(=O)(=O)[O-].[Na+]` [0.1% SDS, reference compound], the “Viability relative to control (%)” value in data set [1] (DU-145 cells, positive control at 0.1%) was found to be 21.7%.
Consider `CCCCCCCCCCCCCCCC(=O)N[C@@H](CCC(N)=O)C(=O)N[C@@H](Cc1c[nH]cn1)C(=O)N[C@@H](Cc1c[nH]c2ccccc12)C(=O)N[C@@H](CO)C(=O)N[C@@H](Cc1ccc(O)cc1)C(=O)N[C@H](CC(C)C)C(=O)N[C@@H](CC(C)C)C(=O)N[C@@H](CCCNC(=N)N)C(=O)N1CCC[C@H]1C(=O)NCC` [Derivative P2, Palmitate-Gln-His-Trp-Ser-Tyr-DLeu-Leu-Arg-Pro-NHEt] (Palmitoyl-QHWSY[dL]LRP-NHEt), for which the “fold greater cytotoxic effects compared to Leuprolide or GnRH” value in data set [1] is listed as 7- to 7.5 fold. For the same molecule, the level at 0.5 h in data set [2] (female, SD, blood, sc, 12.5 mg/kg, s.c. once 12.5 mg/kg, 0.5 hr., read-out: blood concentration, Mean) came out at 11.8 ng/mL. The level at 1 h in data set [2] (female, SD, blood, sc, 12.5 mg/kg, s.c. once 12.5 mg/kg, 1 hr., read-out: blood concentration, Mean) is 16.9 ng/mL. The level at 2 h in data set [2] (female, SD, blood, sc, 12.5 mg/kg, s.c. once 12.5 mg/kg, 2 hr., read-out: blood concentration, Mean) amounted to 29.1 ng/mL. Further, the level at 6 h in data set [2] (female, SD, blood, sc, 12.5 mg/kg, s.c. once 12.5 mg/kg, 6 hr., read-out: blood concentration, Mean) is 52.2 ng/mL. Besides, the level at 24 h in data set [2] (female, SD, blood, sc, 12.5 mg/kg, s.c. once 12.5 mg/kg, 1 day) was found to be 45 ng/mL. In addition, in data set [2] (female, SD, blood, sc, 12.5 mg/kg, s.c. once 12.5 mg/kg, 7 days), the level at 168 h came out at 11.9 ng/mL. The same molecule displayed a level at 240 h in data set [2] (female, SD, blood, sc, 12.5 mg/kg, s.c. once 12.5 mg/kg, 10 days) of 8.18 ng/mL. This molecule also had a level at 336 h in data set [2] (female, SD, blood, sc, 12.5 mg/kg, s.c. once 12.5 mg/kg, 14 days) of 4.35 ng/mL. For the same molecule, in data set [2] (s.c. once 12.5 mg/kg), the “CL (clearance rate)” value is 0.051 (mg/kg)/(ng/ml)/day and the “Vd (volume of distribution)” value was 0.351 (mg/kg)/(ng/ml).
With `CCCCCCCCCCCCCCCC(=O)N[C@@H](CCC(=O)O)C(=O)N[C@@H](Cc1c[nH]cn1)C(=O)N[C@@H](Cc1c[nH]c2ccccc12)C(=O)N[C@@H](CO)C(=O)N[C@@H](Cc1ccc(O)cc1)C(=O)N[C@H](CC(C)C)C(=O)N[C@@H](CC(C)C)C(=O)N[C@@H](CCCNC(=N)N)C(=O)N1CCC[C@H]1C(=O)NCC` [Derivative P3, Palmitate-Glu-His-Trp-Ser-Tyr-DLeu-Leu-Arg-Pro-NHEt] (Palmitoyl-EHWSY[dL]LRP-NHEt), the “fold greater cytotoxic effects compared to Leuprolide or GnRH” value in data set [1] is reported as 7- to 7.5 fold.
In turn, `CCCCCCCCCCCCCCCC(=O)N[C@@H](CCC(N)=O)C(=O)N[C@@H](Cc1c[nH]cn1)C(=O)N[C@@H](Cc1c[nH]c2ccccc12)C(=O)N[C@@H](CO)C(=O)N[C@@H](Cc1ccc(O)cc1)C(=O)N[C@H](CC(C)C)C(=O)N[C@@H](CC(C)C)C(=O)N[C@@H](CCCNC(=N)N)C(=O)N1CCC[C@H]1C(=O)NCC` [Derivative P4, Palmitate-Gln-His-Trp-Ser-Tyr-DLeu-Leu-Arg-Pro-NHEt] (Palmitoyl-QHWSY[dL]LRP-NHEt) had a level at 504 h in data set [2] (female, SD, blood, sc, 12.5 mg/kg, s.c. once 12.5 mg/kg, 21 days) of 1.26 ng/mL. Further, in data set [2] (s.c. once 12.5 mg/kg), the “CL (clearance rate)” value is on record as 0.075 (mg/kg)/(ng/ml)/day and the “Vd (volume of distribution)” value is on record as 0.436 (mg/kg)/(ng/ml).
`CC(C)C[C@H](NC(=O)CNC(=O)[C@H](Cc1ccc(O)cc1)NC(=O)[C@H](CO)NC(=O)[C@H](Cc1c[nH]c2ccccc12)NC(=O)[C@H](Cc1cnc[nH]1)NC(=O)[C@@H]1CCC(=O)N1)C(=O)N[C@@H](CCCNC(=N)N)C(=O)N1CCC[C@H]1C(=O)NCC(N)=O` [GnRH]: the “in vivo half-life in circulating blood” value in data set [3] was 2 to 4 min.
As to `CCNC(=O)[C@@H]1CCCN1C(=O)[C@H](CCCNC(=N)N)NC(=O)[C@H](CC(C)C)NC(=O)[C@@H](CC(C)C)NC(=O)[C@H](Cc1ccc(O)cc1)NC(=O)[C@H](CO)NC(=O)[C@H](Cc1c[nH]c2ccccc12)NC(=O)[C@H](Cc1c[nH]cn1)NC(=O)[C@@H]1CCC(=O)N1` [Leuprolide, pyroGlu-His-Trp-Ser-Tyr-DLeu-Leu-Arg-Pro-NHEt, reference compound], the “cell death rate on prostate cancer cells” value in data set [1] (DU-145 cells) is on record as “about 10%”. Moreover, in data set [2] (setting [5]), the AUC(0-t) is 1660 ng·h/mL, the concentration peaked (Cmax) at 1020 ng/mL, the Tmax is 28.8 min and the half-life is 43.2 min. For the same molecule, in data set [2] (setting [6]), the level at 0.5 h was found to be 1020 ng/mL, the level at 1 h was 769 ng/mL, the level at 2 h stood at 228 ng/mL and the level at 6 h amounted to 2.88 ng/mL. In addition, in data set [2] (in vivo, sc, 12.5 mg/kg), the “CL (clearance rate)” value is on record as 0.180 (mg/kg)/(ng/ml)/day and the “Vd (volume of distribution)” value is 0.007 (mg/kg)/(ng/ml).
dexamethasone palmitate: the “anti-inflammatory effect, fold higher than dexamethasone alone” value in data set [4] was 5.6 fold.
